Where only a bound is given, the exact number is not on record here.

The test system of assay [1] is KB tumor cells. Kind of assay: Metabolite rescue of growth inhibition in KB tumor cells. The following applies: serine- and glycine-free medium, adenosine 60 μM. It counts as cell-based, human. An excerpt:
To confirm the targeted pathways for the pyrrolo[3,2-d]pyrimidine antifolates in tumor cells, we treated KB human tumor cells cultured in serine- and glycine-free media with the pyrrolo[3,2-d]pyrimidine compounds (4–9, 11–16) to test for the rescue by added nucleosides and glycine. Results were compared to those for AGF94, a pyrrolo[2,3-d]pyrimidine antifolate that inhibits GARFTase without effects on SHMT2,[69] and to compounds 1, 2, and 3, documented inhibitors of mitochondrial C1 metabolism and de novo purine biosynthesis in human tumor cells.[36] The results are shown in Figures 15 and S11 (Supplemental Information). […]
For some experiments with KB tumor cells, cells were cultured in serine-, glycine-, and folate-free RPMI 1640 (Fisher Scientific), supplemented with 10% dialyzed fetal bovine serum, antibiotics, 25 nM leucovorin, and 2 mM L-glutamine. In vitro growth inhibition was measured (above), without additions, or in the presence of folic acid (200 nM), or thymidine (10 μM), adenosine (60 μM), 5-aminoimidazole-4-carboxamide (AICA) (320 μM), and/or glycine (130 μM) to establish the inhibitory effects of the antifolate drugs on de novo thymidylate synthase versus de novo purine nucleotide biosynthesis (GARFTase and AICARFTase) or mitochondrial C1 metabolism at SHMT2.[36],[63],[64],[68],[69] […]

Assay [2] has as its target T1, human GARFTase (Homo sapiens, UniProt P22102).
T1 construct: formyltransferase domain of human GARFTase (residues 808–1010); made in house; host or cells: E. coli Rosetta (DE3)pLysS
T1 sequence (P22102 808-1010): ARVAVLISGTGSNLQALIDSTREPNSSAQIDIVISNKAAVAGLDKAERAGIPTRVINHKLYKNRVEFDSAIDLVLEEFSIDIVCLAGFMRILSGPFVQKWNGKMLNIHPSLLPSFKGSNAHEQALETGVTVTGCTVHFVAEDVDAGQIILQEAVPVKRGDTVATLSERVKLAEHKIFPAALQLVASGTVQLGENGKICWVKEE
Kind of assay: GARFTase inhibition assay, Ki (10-formyl THF to THF, absorbance 298 nm). It counts as biochemical. As to conditions: purified His-GARFTase, 40 μM 10-formyl THF, 37 °C; mean (SD), at least 3 replicates.

For assay [3], the target named is T2, human ATIC (Homo sapiens, UniProt P31939).
T2 construct: N-terminal His6-tagged full-length human ATIC; made in house; host or cells: E. coli Rosetta (DE3)pLysS
As to the kind of experiment: AICARFTase (ATIC) inhibition assay, Ki. The assay is classed as biochemical. As to conditions: purified His-ATIC, AICARFTase activity, 50 μM 10-formyl THF, 25 °C; mean (SD), at least 3 replicates. The method, then: The cells were grown at 37 °C in 1 L cultures of LB media containing […] and […] until OD600 reached 0.6. Protein expression was induced by the addition of isopropyl β-D1-thiogalactopyranoside (IPTG, 500 μM).
His-ATIC was purified by Ni-NTA chromatography (Gold Biotechnology).[36] […] His-ATIC was eluted in 1 column volume fractions, 5 times with buffer containing 300 mM imidazole, 25 mM Tris-HCl, pH 7.5, 300 mM NaCl, and 5 mM β-Me. Size exclusion chromatography on a Superdex 200 16/60 (GE Healthcare) column was used for final purification using 20 mM Tris-HCl, pH 7.5, 150 mM NaCl, 50 mM KCl, 5 mM EDTA, and 5 mM dithiothreitol.
(§1) MTHFD2 activities were assayed by a reaction with methylene THF and NAD^+. NADH production was measured by fluorescence (excitation 340 nm, emission 480 nm). Reaction conditions included 100 nM MTHFD2, 5 μM methylene THF, and concentrations of small-molecule inhibitor ranging from 0.02 nM to 2000 nM; NAD^+ (2.5 mM) was added to initiate the reaction. The reaction buffer consisted of 50 mM Tris-HCl, pH 7.5, 250 mM NaCl, 5 mM magnesium chloride, 5% glycerol, and 0.5 mM TCEP. […] To assay SHMT1 or SHMT2 (SHMT1/2) enzymes, a coupled reaction with His-MTHFD2 in 200-fold molar excess was used where the production of NADH was monitored by fluorescence with excitation at 360 nm and emission at 470 nm at 25 °C. The reactions contained 5 nM His-SHMT1/2, 50 μM THF, 20 mM serine, 10 μM His-MTHFD2, 2.5 mM NAD^+, and a range of inhibitor concentrations (final concentrations). The reactions were performed in buffer containing 20 mM sodium phosphate, pH 7.5, 100 mM KCl, 0.2 mM EDTA, and 5 mM β-Me. […] To calculate IC50 values for each inhibitor, initial velocities were graphed as a function of inhibitor concentrations and fit with a three-parameter nonlinear regression (GraphPad Prism 8.0). The equation [Ki = IC50/([S]/KM + 1)] was used to convert IC50’s to Ki values.

Assay [4] deals with T3, SHMT1 (Homo sapiens, UniProt P34896).
T3 construct: full-length SHMT1 with an N-terminal His6-tag; made in house; host or cells: E. coli Rosetta (DE3)pLysS
T3 sequence (P34896 1-483): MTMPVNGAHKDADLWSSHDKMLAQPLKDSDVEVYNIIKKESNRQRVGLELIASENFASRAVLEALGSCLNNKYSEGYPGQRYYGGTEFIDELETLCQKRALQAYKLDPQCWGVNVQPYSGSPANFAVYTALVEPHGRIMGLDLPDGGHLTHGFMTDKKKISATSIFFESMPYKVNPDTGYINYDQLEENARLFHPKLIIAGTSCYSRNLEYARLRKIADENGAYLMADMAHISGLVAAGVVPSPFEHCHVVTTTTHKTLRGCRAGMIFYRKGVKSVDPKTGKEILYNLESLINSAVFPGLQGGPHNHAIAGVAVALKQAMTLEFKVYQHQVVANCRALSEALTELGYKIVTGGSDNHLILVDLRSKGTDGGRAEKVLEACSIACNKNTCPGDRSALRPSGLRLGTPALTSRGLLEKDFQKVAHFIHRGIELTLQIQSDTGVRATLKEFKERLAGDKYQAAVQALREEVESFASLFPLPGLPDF
Kind of assay: SHMT1 inhibition assay coupled with MTHFD2, Ki. The assay is classed as biochemical. The following applies: purified His-SHMT1, 50 μM THF, 25 °C; mean (SD), at least 3 replicates.
Description: Kinetic measurements were recorded in triplicate using a flat, black-bottom, black-walled 96-well plate (Greiner Bio-One, 655900) and a BioTek Synergy Neo2 Plate Reader. […] To assay SHMT1 or SHMT2 (SHMT1/2) enzymes, a coupled reaction with His-MTHFD2 in 200-fold molar excess was used where the production of NADH was monitored by fluorescence with excitation at 360 nm and emission at 470 nm at 25 °C. The reactions contained 5 nM His-SHMT1/2, 50 μM THF, 20 mM serine, 10 μM His-MTHFD2, 2.5 mM NAD^+, and a range of inhibitor concentrations (final concentrations). The reactions were performed in buffer containing 20 mM sodium phosphate, pH 7.5, 100 mM KCl, 0.2 mM EDTA, and 5 mM β-Me. A BioTek Synergy Neo2 Plate Reader was used to record kinetic measurements in triplicate in a UV-transparent 96-well plate (Costar 3635) for GARFTase and AICARFTase assays and a black-well, black-bottom 96-well plate (Corning 3603). To calculate IC50 values for each inhibitor, initial velocities were graphed as a function of inhibitor concentrations and fit with a three-parameter nonlinear regression (GraphPad Prism 8.0). The equation [Ki = IC50/([S]/KM + 1)] was used to convert IC50’s to Ki values.

Assay [5] has as its target T4, SHMT2 (Homo sapiens, UniProt P34897).
T4 construct: made in house; host or cells: E. coli Rosetta (DE3)pLysS
T4 sequence (P34897 30-504): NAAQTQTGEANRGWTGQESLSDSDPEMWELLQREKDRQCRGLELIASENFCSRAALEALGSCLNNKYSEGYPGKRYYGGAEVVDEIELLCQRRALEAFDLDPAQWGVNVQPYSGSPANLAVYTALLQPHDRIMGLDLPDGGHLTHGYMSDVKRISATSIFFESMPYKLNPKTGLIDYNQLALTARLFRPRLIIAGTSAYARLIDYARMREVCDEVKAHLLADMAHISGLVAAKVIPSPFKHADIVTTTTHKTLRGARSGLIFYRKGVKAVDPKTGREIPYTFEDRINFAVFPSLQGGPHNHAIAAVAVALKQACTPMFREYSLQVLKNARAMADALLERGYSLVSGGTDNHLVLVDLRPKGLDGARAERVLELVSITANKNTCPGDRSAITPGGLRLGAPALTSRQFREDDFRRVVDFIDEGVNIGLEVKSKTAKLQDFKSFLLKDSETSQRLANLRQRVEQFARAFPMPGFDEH
Kind of assay: SHMT2 inhibition assay coupled with MTHFD2, Ki. As to conditions: purified His-SHMT2, 50 μM THF, 25 °C; mean (SD), at least 3 replicates. The assay is classed as biochemical. The method, then: as §1

Assay [6] has as its system KB (RFC/PCFT/FRα) cells. Kind of assay: Growth inhibition, KB nasopharyngeal carcinoma cells. It counts as cell-based, human. As to conditions: Homo sapiens, KB, folate-free RPMI 1640, 2 nM leucovorin, mean (SE).
Assay [7] relates to PC43-10 (RFC) CHO cells. The following applies: classic antifolates, CHO cells expressing human RFC; previously published; cited from earlier work.
In assay [8] the test system is RT16 (FRα) CHO cells. As to conditions: classic antifolates, CHO cells expressing human FRα; previously published; cited from earlier work.
In assay [9] the test system is D4 (FRβ) CHO cells. As to conditions: classic antifolates, CHO cells expressing human FRβ; previously published; cited from earlier work.

T2 sequence (P31939 whole entry): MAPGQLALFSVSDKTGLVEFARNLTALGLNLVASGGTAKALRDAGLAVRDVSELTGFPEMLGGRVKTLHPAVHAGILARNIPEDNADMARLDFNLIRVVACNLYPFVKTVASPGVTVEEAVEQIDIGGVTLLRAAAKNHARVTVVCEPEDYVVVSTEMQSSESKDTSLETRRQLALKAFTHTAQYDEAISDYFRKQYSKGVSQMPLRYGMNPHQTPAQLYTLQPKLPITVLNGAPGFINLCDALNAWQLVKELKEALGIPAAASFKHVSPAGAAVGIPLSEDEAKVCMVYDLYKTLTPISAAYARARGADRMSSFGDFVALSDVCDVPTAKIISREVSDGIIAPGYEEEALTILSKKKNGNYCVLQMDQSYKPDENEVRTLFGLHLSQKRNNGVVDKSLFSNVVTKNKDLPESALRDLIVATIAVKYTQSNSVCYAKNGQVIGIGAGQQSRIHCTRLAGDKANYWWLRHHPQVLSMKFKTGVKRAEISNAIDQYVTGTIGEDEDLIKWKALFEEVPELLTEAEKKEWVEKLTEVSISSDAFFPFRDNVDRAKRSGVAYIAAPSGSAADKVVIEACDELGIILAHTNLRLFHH

As to `Nc1nc2[nH]c(CCCc3ccc(C(=O)N[C@@H](CCC(=O)O)C(=O)O)s3)cc2c(=O)[nH]1` [AGF94, (S)-2-({5-[3-(2-amino-4-oxo-4,7-dihydro-3H-pyrrolo[2,3-d]pyrimidin-6-yl)-propyl]-thiophene-2-carbonyl}-amino)-pentanedioic acid], in assay [1], the “effect of adenosine alone on growth inhibition” value is “completely reversed”.

One may read the Ki as the dissociation constant of the complex between target and ligand, obtained from inhibition or displacement. High values mean lower affinity, low ones higher affinity. Usually IC50 stands for the midpoint of a concentration-inhibition curve. For the compound `C#CCC(Cc1cnc2nc(N)nc(N)c2n1)c1ccc(C(=O)N[C@@H](CCC(=O)O)C(=O)O)cc1` (stereo partly drawn) [PDX, N-(4-{1-[(2,4-diaminopteridin-6-yl)methyl]but-3-yn-1-yl}benzoyl)-L-glutamic acid], the Ki in assay [2] was more than 150 µM; in [3] it was more than 200 µM; in assay [4], more than 200 µM; in [5], more than 200 µM. Moreover, the IC50 in [6] is 0.00047 µM; in assay [7] it was 0.00069 µM; in assay [8], 0.043 µM; in assay [9], 0.0025 µM.
